{
  "source": "patent US7202085B2",
  "about": "“Control of gene expression in eukaryotic cells” (Calgene LLC, priority 1999, dated 2007)",
  "test_system": "tra box-GUS reporter",
  "protocol": "Plasmids for transfection were isolated and purified using Megaprep plasmid DNA isolation kit (Qiagen). Carrot protoplasts for transfections were prepared from carrot cell suspension culture and transfected with purified DNA as described (Ulmasov et al., Plant Cell 7:1611–1623, 1995). Briefly, 10 μg of the reporter plasmid and 5 μg of the effector plasmid were incubated with 10^6 protoplasts for five minutes at the room temperature in the presence of polyethylene glycol-calcium solution. After diluting approximately 10-fold with the culture medium, the protoplasts were incubated in the dark for 36 hours either in the presence or absence of the inducer 3-oxohexanoyl-homoserine lactone (OHHL, racemic mixture of the L- and D-isomers, purchased from Sigma Chemical Co., St Louis, Mo.). After incubation, protoplasts were collected by low-speed centrifugation, lysed and the level of GUS activity was measured using fluorometric GUS assay (Jefferson et al., EMBO J. 6:3901–3907, 1987).\nTen μg of the reporter plasmid (pMON53031), and indicated amount of the 35S effector plasmid per reaction was used for transfection in triplicate. […] The “− inducer” and “+ inducer” columns are averages of the GUS activities.\nThese constructs were tested for background GUS activity and TraR responsiveness in carrot protoplasts.",
  "key": {"[1]": {"conditions": "Table 5 lane 3: traA1(3X), cl.35 alone (35S-CAT), 12.5 μM C8-AHL"}, "[2]": {"conditions": "Table 5 lane 5: traA2(3X), cl.43 alone (35S-CAT), 12.5 μM C8-AHL"}, "[3]": {"conditions": "Table 5 lane 7: traA3(3X), cl.4 alone (35S-CAT), 12.5 μM C8-AHL"}, "[4]": {"conditions": "Table 5 lane 9: traA4(3X), cl.23 alone (35S-CAT), 12.5 μM C8-AHL"}, "[5]": {"conditions": "Table 5 lane 11: traA5(3X), cl.2 alone (35S-CAT), 12.5 μM C8-AHL"}, "[6]": {"conditions": "Table 5 lane 13: traA6(3X), cl.21 alone (35S-CAT), 12.5 μM C8-AHL"}, "[7]": {"conditions": "Table 5 lane 15: traA7(3X), cl.15 alone (35S-CAT), 12.5 μM C8-AHL"}, "[8]": {"conditions": "Table 5 lane 17: traA8(3X), cl.4 alone (35S-CAT), 12.5 μM C8-AHL"}, "[9]": {"conditions": "Table 5 lane 19: traA9(3X), cl.8 alone (35S-CAT), 12.5 μM C8-AHL"}, "[10]": {"conditions": "Table 5 lane 21: min-46GUS, 12.5 μM C8-AHL"}, "[11]": {"conditions": "Table 6 lane 1: Tra box(3X), cl.5 + CAT, 12.5 μM C8-AHL"}, "[12]": {"conditions": "Table 6 lane 3: TraA1(3X), cl.35 + CAT, 12.5 μM C8-AHL"}, "[13]": {"conditions": "Table 6 lane 5: TraA2(3X), cl.43 + CAT, 12.5 μM C8-AHL"}, "[14]": {"conditions": "Table 6 lane 7: TraA3(3X), cl.4 + CAT, 12.5 μM C8-AHL"}, "[15]": {"conditions": "Table 6 lane 9: TraA4(3X), cl.23 + CAT, 12.5 μM C8-AHL"}, "[16]": {"conditions": "Table 6 lane 11: TraA5(3X), cl.2 + CAT, 12.5 μM C8-AHL"}, "[17]": {"conditions": "Table 6 lane 15: TraA7(3X), cl.15 + CAT, 12.5 μM C8-AHL"}, "[18]": {"conditions": "Table 6 lane 17: TraA8(3X), cl.4 + CAT, 12.5 μM C8-AHL"}, "[19]": {"conditions": "Table 6 lane 19: TraA9(3X), cl.8 + CAT, 12.5 μM C8-AHL"}, "[20]": {"conditions": "Table 6 lane 21: TraA10(3X), cl.17 + CAT, 12.5 μM C8-AHL"}, "[21]": {"conditions": "Table 6 lane 23: TraA-1(3X), cl.14 + CAT, 12.5 μM C8-AHL"}, "[22]": {"conditions": "Table 6 lane 25: min35S-46-GUS, 12.5 μM C8-AHL"}, "[23]": {"conditions": "Table 7 lane 1: S2-46GUS, 12.5 μM C8-AHL"}, "[24]": {"conditions": "Table 7 lane 2: TraA8(4X), cl.16 + CAT, 12.5 μM C8-AHL"}, "[25]": {"conditions": "Table 7 lane 4: TraA8(3X), cl.4(60 μg) + CAT, 12.5 μM C8-AHL"}, "[26]": {"conditions": "Table 7 lane 6: TraA8(3X), cl.4(60 μg) +TraM, 12.5 μM C8-AHL"}, "[27]": {"conditions": "Table 7 lane 7: TraA8(3X), cl.4(60 μg) +TraS, 12.5 μM C8-AHL"}, "[28]": {"conditions": "Table 8 lane 2: TraA8(4X) +CAT, 25 μM C8-HSL"}},
  "note": "Where “and” joins values, the source holds several entries; their conditions need not be identical. Equal values may be shown once. Read-outs that look alike come from different tables or passages of the source.",
  "data": [
    {"smiles": "CCCCCC(=O)CC(=O)N[C@H]1CCOC1=O", "note": "[C8-HSL, 3-oxooctanoyl-L-homoserine lactone]", "values": [
      {"measurement": "+inducer (average GUS activity)", "setting": "Table 5 lane 1: tra box (6X), cl.7 alone (35S-CAT), 12.5 μM C8-AHL", "result": 620.2},
      {"measurement": "4, 5, 6 (replicate GUS activities, +inducer)", "setting": "[1]", "result": "110.8 and 118.5 and 145.2"},
      {"measurement": "+inducer (average GUS activity)", "setting": "[1]", "result": 124.8},
      {"measurement": "4, 5, 6 (replicate GUS activities, +inducer)", "setting": "[2]", "result": "240.6 and 221.1 and 229.7"},
      {"measurement": "+inducer (average GUS activity)", "setting": "[2]", "result": 230.5},
      {"measurement": "4, 5, 6 (replicate GUS activities, +inducer)", "setting": "[3]", "result": "89.3 and 94.4 and 103.2"},
      {"measurement": "+inducer (average GUS activity)", "setting": "[3]", "result": 95.6},
      {"measurement": "4, 5, 6 (replicate GUS activities, +inducer)", "setting": "[4]", "result": "177.7 and 196.0 and 195.0"},
      {"measurement": "+inducer (average GUS activity)", "setting": "[4]", "result": 189.6},
      {"measurement": "4, 5, 6 (replicate GUS activities, +inducer)", "setting": "[5]", "result": "20.6 and 16.2 and 13.1"},
      {"measurement": "+inducer (average GUS activity)", "setting": "[5]", "result": 16.6},
      {"measurement": "4, 5, 6 (replicate GUS activities, +inducer)", "setting": "[6]", "result": "73.6 and 64.2 and 76.1"},
      {"measurement": "+inducer (average GUS activity)", "setting": "[6]", "result": 71.3},
      {"measurement": "4, 5, 6 (replicate GUS activities, +inducer)", "setting": "[7]", "result": "215.1 and 200.0 and 238.6"},
      {"measurement": "+inducer (average GUS activity)", "setting": "[7]", "result": 217.9},
      {"measurement": "4, 5, 6 (replicate GUS activities, +inducer)", "setting": "[8]", "result": "36.3 and 43.3 and 39.8"},
      {"measurement": "+inducer (average GUS activity)", "setting": "[8]", "result": 39.8},
      {"measurement": "4, 5, 6 (replicate GUS activities, +inducer)", "setting": "[9]", "result": "32.4 and 35.6 and 36.2"},
      {"measurement": "+inducer (average GUS activity)", "setting": "[9]", "result": 34.7},
      {"measurement": "4, 5, 6 (replicate GUS activities, +inducer)", "setting": "[10]", "result": "145.4 and 124.2 and 116.0"},
      {"measurement": "+inducer (average GUS activity)", "setting": "[10]", "result": 128.5},
      {"measurement": "4, 5, 6 (replicate GUS activities, +inducer)", "setting": "[11]", "result": "264.6 and 251.9 and 230.9"},
      {"measurement": "+inducer (average GUS activity)", "setting": "[11]", "result": 249.1},
      {"measurement": "4, 5, 6 (replicate GUS activities, +inducer)", "setting": "[12]", "result": "70.7 and 54.2 and 42.8"},
      {"measurement": "+inducer (average GUS activity)", "setting": "[12]", "result": 55.9},
      {"measurement": "4, 5, 6 (replicate GUS activities, +inducer)", "setting": "[13]", "result": "125.2 and 103.0 and 110.2"},
      {"measurement": "+inducer (average GUS activity)", "setting": "[13]", "result": 112.8},
      {"measurement": "4, 5, 6 (replicate GUS activities, +inducer)", "setting": "[14]", "result": "59.2 and 62.8 and 46.4"},
      {"measurement": "+inducer (average GUS activity)", "setting": "[14]", "result": 56.1},
      {"measurement": "4, 5, 6 (replicate GUS activities, +inducer)", "setting": "[15]", "result": "87.9 and 86.4 and 85.9"},
      {"measurement": "+inducer (average GUS activity)", "setting": "[15]", "result": 86.7},
      {"measurement": "4, 5, 6 (replicate GUS activities, +inducer)", "setting": "[16]", "result": "72.5 and 68.2 and 90.9"},
      {"measurement": "+inducer (average GUS activity)", "setting": "[16]", "result": 77.2},
      {"measurement": "+inducer (average GUS activity)", "setting": "Table 6 lane 13: TraA6(3X), cl.21 + CAT, 12.5 μM C8-AHL", "result": 3.9},
      {"measurement": "4, 5, 6 (replicate GUS activities, +inducer)", "setting": "[17]", "result": "241.3 and 197.1 and 268.5"},
      {"measurement": "+inducer (average GUS activity)", "setting": "[17]", "result": 235.6},
      {"measurement": "4, 5, 6 (replicate GUS activities, +inducer)", "setting": "[18]", "result": "121.2 and 148.8 and 115.9"},
      {"measurement": "+inducer (average GUS activity)", "setting": "[18]", "result": 128.7},
      {"measurement": "4, 5, 6 (replicate GUS activities, +inducer)", "setting": "[19]", "result": "97.4 and 96.7 and 89.6"},
      {"measurement": "+inducer (average GUS activity)", "setting": "[19]", "result": 94.6},
      {"measurement": "4, 5, 6 (replicate GUS activities, +inducer)", "setting": "[20]", "result": "47.1 and 44.2 and 44.1"},
      {"measurement": "+inducer (average GUS activity)", "setting": "[20]", "result": 45.1},
      {"measurement": "4, 5, 6 (replicate GUS activities, +inducer)", "setting": "[21]", "result": "19.7 and 23.6 and 17.0"},
      {"measurement": "+inducer (average GUS activity)", "setting": "[21]", "result": 20.1},
      {"measurement": "4, 5, 6 (replicate GUS activities, +inducer)", "setting": "[22]", "result": "39.6 and 32.1 and 44.5"},
      {"measurement": "+inducer (average GUS activity)", "setting": "[22]", "result": 38.7},
      {"measurement": "4, 5, 6 (replicate GUS activities, +inducer)", "setting": "[23]", "result": "27.2 and 22.7 and 17.4"},
      {"measurement": "+inducer (average GUS activity)", "setting": "[23]", "result": 22.4},
      {"measurement": "4, 5, 6 (replicate GUS activities, +inducer)", "setting": "[24]", "result": "20.3 and 25.1 and 18.7"},
      {"measurement": "+inducer (average GUS activity)", "setting": "[24]", "result": 21.3},
      {"measurement": "4, 5, 6 (replicate GUS activities, +inducer)", "setting": "[25]", "result": "76.6 and 75.1 and 58.1"},
      {"measurement": "+inducer (average GUS activity)", "setting": "[25]", "result": 70.0},
      {"measurement": "4, 5, 6 (replicate GUS activities, +inducer)", "setting": "[26]", "result": "105.0 and 102.1 and 86.8"},
      {"measurement": "+inducer (average GUS activity)", "setting": "[26]", "result": 98.0},
      {"measurement": "4, 5, 6 (replicate GUS activities, +inducer)", "setting": "[27]", "result": "143.6 and 128.8 and 134.8"},
      {"measurement": "+inducer (average GUS activity)", "setting": "[27]", "result": 135.7},
      {"measurement": "4, 5, 6 (replicate GUS activities, +inducer)", "setting": "[28]", "result": "1101.9 and 791.0 and 1071.3"},
      {"measurement": "+inducer (average GUS activity)", "setting": "[28]", "result": 988.1}
    ]}
  ]
}
